From US20130123618A1, “Imaging Agents” (priority 2008, published 2013)

Key:
[1] = system: A549 Human Lung adenocarcinoma cells; assay: in vitro amino acid uptake in A549 cells; format: cell-based
Excerpt: (§1) Compounds have been evaluated in vitro for tumor binding specificity (i.e. uptake cells) using a variety of tumor cell lines available in the art, along with reference compounds such as Me-AlB and BCH. Detailed description of these assays can be found in Martarello et al. (2002) Journal of Medicinal Chemistry, 45:2250-2259 and McConathy et al. (2003) Nuclear Medicine and Biology, 30:477-490. These so called “amino acid uptake studies” are typically carried out with radiolabeled compounds in at least five phenotypically different human tumor cell lines (e.g., A549 lung carcinoma, MB468 breast carcinoma, DU145 prostate carcinoma-androgen independent, LnCap-androgen dependent, SKOV3 ovarian carcinoma, U87 glial blastoma, MIA PaCa-2 pancreas carcinoma, MDA MB231 breast carcinoma). These tumor cell lines can be grown either in vitro or in vivo with severe combined immunodeficiency (SCID) mice as a host. The afore-mentioned tumor cell lines are available at the Winship Cancer Institute of Emory University.
(§2) For the in vitro amino acid uptake studies, all cells can be grown to monolayer confluency in T-175 culture flasks [Corning, Corning, N.Y.] (approx. 1×10^8 cells/flask) in Dulbecco's Modified Eagle's Medium (DMEM) [Sigma, St. Louis, Mo.] in a humidified incubator (37° C., 5% CO2/95% air). […]
(§3) In the in vitro studies the uptake rate of each amino acid compound is measured in each tumor line, as well as the dominant transport mechanisms of each tumor cell line. After trypsinization, cells are resuspended in serum-free media, then counted on a hemocytometer, with viability assessed through Trypan blue staining. […] The vials are placed in a Cobra-II gamma counter (Packard, Meriden, Conn.), with the activity per cell number determined. […] Saline washes are performed as described above, and the filtered cells' radioactivity determined on the gamma counter. […]
(§4) The uptake of all compounds were measured in human and rat cancer cell lines and the dominant transport (“A” and “L”) mechanism of each culture were determined. […]

[2] = system: DU145 Human Prostate carcinoma cells; assay: in vitro amino acid uptake in DU145 cells; format: cell-based
Excerpt: as §1, §2, §3, §4

[3] = system: 9L Rat gliosarcoma cells; assay: in vitro amino acid uptake in 9L cells; format: cell-based
Excerpt: as §1, §2, §3, §4

[4] = system: MDA MB468 Human Breast carcinoma cells; assay: in vitro amino acid uptake in MDA MB468 cells; format: cell-based
Excerpt: as §1, §2, §3, §4

[5] = system: A549, human lung cancer cells implanted in flanks; assay: tissue distribution in SCID mice bearing A549 tumors; format: in vivo; settings: for tissue distribution, blood / tissue distribution, bone / tissue distribution, brain / tissue distribution, heart / tissue distribution, kidney / tissue distribution, liver / tissue distribution, lung / tissue distribution, muscle / tissue distribution, pancreas / tissue distribution, spleen / tissue distribution, tumor: A549 tumor-bearing SCID mice, tail vein, ave
Description: For the in vitro amino acid uptake studies, all cells can be grown to monolayer confluency in T-175 culture flasks [Corning, Corning, N.Y.] (approx. 1×10^8 cells/flask) in Dulbecco's Modified Eagle's Medium (DMEM) [Sigma, St. Louis, Mo.] in a humidified incubator (37° C., 5% CO2/95% air). Media are supplemented with 10% fetal calf serum [Hyclone, Logan, Utah], and antibiotics (10,000 U/ml penicillin and 10 mg/ml streptomycin) (Sigma, St. Louis, Mo.). For tissue culture passage, monolayer cells are detached by gentle trypsinization, resuspended in complete media, and split 1:10 into new T-flasks. Cultures are passaged weekly, and fed fresh media every 2 to 3 days. To initiate tumor growth in SCID mice, 1×10^6 cells are injected s.c. bilaterally into the flanks (inguinal region) of the recipient animals using a 1 ml syringe with a 27 gauge needle. Ex vivo experiments can be performed with animals containing tumors weighing between 500 mg and 1 g, as estimated by caliper measurement (tumor weight=(π/6)*abc, where a, b and c are the tumor length, width and height, respectively).
Tissue distribution of the compounds is measured in SCID mice (average weight, 20-25 g) bearing human tumors as follows. The candidate radioligands (20 uCi in 0.4 ml 0.9% NaCl) are injected into the tail vein of tumor-bearing mice. […] Tissues (blood, heart, liver, lungs, kidneys, bone, thyroid, muscle, brain and tumor) are excised, rinsed in saline, and blotted dry. The tissues are weighed, placed into 12×75 mm glass vials, the radioactivity determined with a gamma counter, and the percent dose/gram calculated. Total activities of blood and muscle are calculated by assuming that they account for 7% and 40% of the total body mass, respectively.
Tables 3-7 show the results of the biodistribution studies with the separate enantiomers of anti-2-[^18F]FACPC and racemic anti-2-[^18F]FACBC as a comparison in SCiD mice implanted in their flanks with A549, human lung cancer cells and DU145, human prostate cancer cells.

[6] = A549 cells implanted subcutaneously in flanks of SCID mice
[7] = 15 min, listed as Anti-2-[^18F]FACPC Enantiomer 1
[8] = 60 min, listed as Anti-2-[^18F]FACPC Enantiomer 1

NC1(C(=O)O)CCC1[18F] (racemic) [racemic anti-2-[^18F]FACBC]
% Dose uptake per 0.5 × 10−6 Cells [1]: 8.9 % Dose/0.5 × 10^−6 | % Dose uptake per 0.5 × 10−6 Cells [2]: 6.4 % Dose/0.5 × 10^−6 | % Dose uptake per 0.5 × 10−6 Cells [3]: 2.3 % Dose/0.5 × 10^−6 | % Dose uptake per 0.5 × 10−6 Cells [4]: 7.4 % Dose/0.5 × 10^−6 | tissue distribution, blood ([5]; 15 min): 3.39 percent dose/gram | tissue distribution, bone ([5]; 15 min): 2.07 percent dose/gram | tissue distribution, brain ([5]; 15 min): 0.27 percent dose/gram | tissue distribution, heart ([5]; 15 min): 2.71 percent dose/gram | tissue distribution, kidney ([5]; 15 min): 10.12 percent dose/gram | tissue distribution, liver ([5]; 15 min): 3.15 percent dose/gram | tissue distribution, lung ([5]; 15 min): 4.23 percent dose/gram | tissue distribution, muscle ([5]; 15 min): 1.38 percent dose/gram | tissue distribution, pancreas ([5]; 15 min): 48.45 percent dose/gram | tissue distribution, spleen ([5]; 15 min): 7.91 percent dose/gram | tissue distribution, tumor ([5]; 15 min): 5.11 percent dose/gram | tissue distribution, blood ([5]; 30 min): 2.43 percent dose/gram | tissue distribution, bone ([5]; 30 min): 1.64 percent dose/gram | tissue distribution, brain ([5]; 30 min): 0.26 percent dose/gram | tissue distribution, heart ([5]; 30 min): 2.24 percent dose/gram | tissue distribution, kidney ([5]; 30 min): 5.48 percent dose/gram | tissue distribution, liver ([5]; 30 min): 2.70 percent dose/gram | tissue distribution, lung ([5]; 30 min): 3.03 percent dose/gram | tissue distribution, muscle ([5]; 30 min): 1.44 percent dose/gram | tissue distribution, pancreas ([5]; 30 min): 44.17 percent dose/gram | tissue distribution, spleen ([5]; 30 min): 5.03 percent dose/gram | tissue distribution, tumor ([5]; 30 min): 4.29 percent dose/gram | tissue distribution, blood ([5]; 60 min): 1.09 percent dose/gram | tissue distribution, bone ([5]; 60 min): 1.02 percent dose/gram | tissue distribution, brain ([5]; 60 min): 0.16 percent dose/gram | tissue distribution, heart ([5]; 60 min): 1.41 percent dose/gram | tissue distribution, kidney ([5]; 60 min): 2.25 percent dose/gram | tissue distribution, liver ([5]; 60 min): 1.47 percent dose/gram | tissue distribution, lung ([5]; 60 min): 1.40 percent dose/gram | tissue distribution, muscle ([5]; 60 min): 0.90 percent dose/gram | tissue distribution, pancreas ([5]; 60 min): 20.64 percent dose/gram | tissue distribution, spleen ([5]; 60 min): 2.86 percent dose/gram | tissue distribution, tumor ([5]; 60 min): 3.04 percent dose/gram | tissue distribution, blood ([5]; 120 min): 0.41 percent dose/gram | tissue distribution, bone ([5]; 120 min): 0.62 percent dose/gram | tissue distribution, brain ([5]; 120 min): 0.15 percent dose/gram | tissue distribution, heart ([5]; 120 min): 0.86 percent dose/gram | tissue distribution, kidney ([5]; 120 min): 1.03 percent dose/gram | tissue distribution, liver ([5]; 120 min): 0.59 percent dose/gram | tissue distribution, lung ([5]; 120 min): 0.56 percent dose/gram | tissue distribution, muscle ([5]; 120 min): 0.77 percent dose/gram | tissue distribution, pancreas ([5]; 120 min): 9.80 percent dose/gram | tissue distribution, spleen ([5]; 120 min): 1.48 percent dose/gram | tissue distribution, tumor ([5]; 120 min): 2.30 percent dose/gram | uptake of radioactivity in the tumors compared with muscle ([5]; A549 tumors, SCID mice, time points sampled post injection): greater than muscle

N[C@]1(C(=O)O)CCC[C@@H]1[18F] (single isomer, unassigned; enantiomer 1) [Enantiomer 1, anti-2-[^18F]FACPC]
% Dose uptake per 0.5 × 10−6 Cells [1]: 13 % Dose/0.5 × 10^−6 | % Dose uptake per 0.5 × 10−6 Cells [2]: 8 % Dose/0.5 × 10^−6 | % Dose uptake per 0.5 × 10−6 Cells [3]: 12 % Dose/0.5 × 10^−6 | % Dose uptake per 0.5 × 10−6 Cells [4]: 15 % Dose/0.5 × 10^−6 | in vivo uptake compared with enantiomer 2 [5, 6]: greater uptake than enantiomer 2 | in vivo uptake compared with racemic 2-[^18F]FACBC [5, 6]: significantly higher in vivo uptake than racemic 2-[^18F]FACBC | tissue distribution, blood [5, 7]: 3.98 percent dose/gram | tissue distribution, bone [5, 7]: 3.08 percent dose/gram | tissue distribution, brain [5, 7]: 0.81 percent dose/gram | tissue distribution, heart [5, 7]: 3.78 percent dose/gram | tissue distribution, kidney [5, 7]: 8.0 percent dose/gram | tissue distribution, liver [5, 7]: 4.01 percent dose/gram | tissue distribution, lung [5, 7]: 4.09 percent dose/gram | tissue distribution, muscle [5, 7]: 2.47 percent dose/gram | tissue distribution, pancreas [5, 7]: 57.83 percent dose/gram | tissue distribution, spleen [5, 7]: 12.52 percent dose/gram | tissue distribution, tumor [5, 7]: 9.77 percent dose/gram | tissue distribution, blood [5, 8]: 1.59 percent dose/gram | tissue distribution, bone [5, 8]: 2.43 percent dose/gram | tissue distribution, brain [5, 8]: 0.81 percent dose/gram | tissue distribution, heart [5, 8]: 2.49 percent dose/gram | tissue distribution, kidney [5, 8]: 4.02 percent dose/gram | tissue distribution, liver [5, 8]: 2.16 percent dose/gram | tissue distribution, lung [5, 8]: 2.07 percent dose/gram | tissue distribution, muscle [5, 8]: 2.43 percent dose/gram | tissue distribution, pancreas [5, 8]: 27.09 percent dose/gram | tissue distribution, spleen [5, 8]: 4.13 percent dose/gram | tissue distribution, tumor [5, 8]: 7.16 percent dose/gram
